The results in this text go back to patent US20220389006A1, “SALTS AND FORMS OF AN ESTROGEN RECEPTOR MODULATOR” (Recurium IP Holdings, LLC, priority 2019, published 2022).

The nature of data set [1]: Crystallinity during sample preparation (XRPD, FIG. 37). The data set is classed as physicochemical. The text has this: FIG. 37 provides a representative XRPD pattern of a second HCl salt of Compound A (prior to sample preparation and after re-preparation of the sample).
(§1) As shown by the top spectrum, the sharp peaks of the HCl salt of Compound A have flattened out compared to the bottom spectrum. […] The data provide in Table 4 further supports the conclusion that Form A maintains its crystallinity compared to the mesylate salt of Compound A.

Data set [2] in a line: Solid-state storage stability of free base Form I at 5, 40 and 60° C. (HPLC). The data set is classed as physicochemical. Particulars: for Area % of A / Purity vs. Initial %: HPLC. Here is the method:
Form I was stable in its solid state at 5° C. for 7 days, but degraded upon storage at 40° C. and 60° C.
In Table 1, “A” represents Compound A, and the data was obtained via HPLC.

Data set [3] can be described thus: Crystallinity / form change upon heating (XRPD). The class given is physicochemical. An excerpt: For XRPD analysis, PANalytical X'Pert3 X-ray powder diffractometer was used.
Data set [4] in a line: HPLC purity before and after heating to 100° C. and 150° C. The class given is physicochemical. Here is the method: (§2) Form A retains its crystallinity to a temperature of about 150° C. […] In addition, Form A can be heated to at least to 100° C. that can allow for the removal of any trapped solvent without erosion of purity, which can be beneficial. The purity of initial Form A, Form A after being heated to 100° C., and Form A after being heated to 150° C. are shown.

A short description of data set [5]: Crystallinity before and after grinding (XRPD, FIG. 38). The class given is physicochemical. Particulars: for crystallinity after grinding: grinding with a mortar and pestle for approximately 5 minutes, XRPD FIG. 38.
Description: as §1

Data set [6] is described as follows: TGA of samples heated to 150° C. (FIG. 34). The class given is physicochemical. As to the method:
FIG. 34 provides a TGA thermogram for (1) Form A for a sample heated to 150° C., and (2) a sample initially dried under vacuum for 3 hours at 40° C.
as §2
TGA data were collected using a TA Discovery 5500 TGA from TA Instruments. DSC was performed using a TA Discovery 2500 DSC from TA Instruments.

In data set [7] the test system is MCF7. The data set is described as follows: Breast Cancer Cell Proliferation Assay (MCF-7). The data set is classed as cell-based. Conditions: 5 days of compound exposure, Cell Titer-Glo. As to the method:
MCF7 was expanded and maintained in the medium (Phenol red free DMEM/F12 (Hyclone SH30272.01) NEAA (Gibco 11140-050) Na-pyruvate (Gibco 11360-070) and Re-stripped Charcoal stripped FBS (Gemini 100-119)). The cells were adjusted to a concentration of 3,000 cells per mL in the above media, and the cells were incubated (37° C., 5% CO2). The following day a 10 point, serial dilution of compounds was added to the cells at a final concentration ranging from 10-0.000005 μM for the test compounds (17β-estradiol was used as a control). Additional cells were plated in 30 wells to serve as the day 1 (pretreatment) comparison. After 5 days of compound exposure, Cell Titer-Glo reagent was added to the cells, and the relative luminescence units (RLUs) of each well was determined. Cell Titer-Glo was also added to 32 μL of medium without cells to obtain a background value. The plates were allowed to incubate at room temperature for 10 minutes to stabilize luminescent signal, and the luminescence signal was recorded with EnSpire. The relative increase in cell number of each sample is determined as follows: (RLU sample-RLU background/RLU estrogen only treated cells-RLU background)×100=% inhibition.
On the technique in general: In ATP-based viability assays light output follows the ATP content of the culture.

Where two headings read alike, the source gives them in different places.

Take `CC1Cc2c([nH]c3ccccc23)C(c2c(F)cc(C=CC(=O)O)cc2F)N1C12CC(C1)C2.Cl` (centres unmarked) [HCl salt of Compound A]: in data set [1], the “crystallinity during sample preparation” value is “variable crystallinity”.

`CC1Cc2c([nH]c3ccccc23)C(c2c(F)cc(C=CC(=O)O)cc2F)N1C12CC(C1)C2` (centres unmarked) [Form I]: in data set [2] (5° C. for 7 days), the “stability in solid state” value was “stable”. Besides, the “Area % of A” value stood at 98.24% in data set [2] (5° C., 1 Day); 98.09% in data set [2] (5° C., 3 Days); 98.14% in data set [2] (5° C., 7 Days); 97.60% in data set [2] (40° C., 1 Day); 96.79% in data set [2] (40° C., 3 Days); 96.18% in data set [2] (40° C., 7 Days). The “Area % of A” value in data set [2] (60° C., 1 Day) is reported as 93.42%; in data set [2] (60° C., 3 Days) it was 88.31%; in data set [2] (60° C., 7 Days) it was 80.95%. Also, the “Purity vs. Initial %” value is reported as 99.8% in data set [2] (5° C., 1 Day); 99.6% in data set [2] (5° C., 3 Days); 99.7% in data set [2] (5° C., 7 Days); 99.1% in data set [2] (40° C., 1 Day); 98.3% in data set [2] (40° C., 3 Days); 97.7% in data set [2] (40° C., 7 Days). Besides, the “Purity vs. Initial %” value in data set [2] (60° C., 1 Day) is 94.9%; in data set [2] (60° C., 3 Days), 89.7%; in data set [2] (60° C., 7 Days) it was 82.2%. The degradation result in data set [2] (after 7 days at 40° C.) is listed as “approximately 2%”; in data set [2] (after 7 days at 60° C.), “approximately 18%”. For the same molecule, in data set [3] (XRPD, FIG. 30 (initially, after 1, 3 and 7 days)), the crystallinity upon heating result is “lose crystallinity”.

For the molecule `CC1Cc2c([nH]c3ccccc23)C(c2c(F)cc(C=CC(=O)O)cc2F)N1C12CC(C1)C2.CS(=O)(=O)O` (centres unmarked) [Mesylate salt of Compound A], the “Purity (area %)” value in data set [4] (Heated to 100° C.) is listed as 98.4 area %; in data set [4] (Heated to 150° C.) it was 97.1 area %; in data set [4] (Initial) it was 98.4 area %. Besides, the Crystallinity entry in data set [5] (After grinding for 5 mins.) is given as “Amorphous”; in data set [5] (Initial), “Crystalline”. For the same molecule, the “crystallinity after grinding” value in data set [5] is recorded as “loss of crystallinity”. The Form change entry in data set [3] (Heated to 100° C.) and in data set [3] (Heated to 150° C.) was “No” in each case.

What is called IC50 is the concentration that gives 50% inhibition. The low end stands for greater potency in that assay, the high end for weaker potency in that assay. Take `CC1Cc2c([nH]c3ccccc23)C(c2c(F)cc(C=CC(=O)O)cc2F)N1C12CC(C1)C2.O=S(=O)(O)O` (centres unmarked) [Form A]: the “HPLC peak No. 2, RRT 0.55 (degradation)” value in data set [4] (After heating to 100° C.) came to 0.67; in data set [4] (After heating to 150° C.) it was 0.76; in data set [4] (Initial (before heating)) it was 0.67. In addition, the “HPLC peak No. 3, RRT 0.59 (degradation)” value was under 0.05 in data set [4] (After heating to 100° C.), 0.18 in data set [4] (After heating to 150° C.) and under 0.05 in data set [4] (Initial (before heating)). The “HPLC peak No. 5, RRT 0.90 (degradation)” value in data set [4] (After heating to 100° C.) is reported as under 0.05; in data set [4] (After heating to 150° C.) it was 0.21; in data set [4] (Initial (before heating)) it was under 0.05. In addition, the “HPLC peak No. 6, RRT 0.94 (degradation)” value in data set [4] (After heating to 100° C.) is under 0.05; in data set [4] (After heating to 150° C.), 0.16; in data set [4] (Initial (before heating)), under 0.05. The “HPLC peak No. 8, RRT 0.97 (degradation)” value is given as under 0.05 in data set [4] (After heating to 100° C.), 0.24 in data set [4] (After heating to 150° C.) and under 0.05 in data set [4] (Initial (before heating)). The “HPLC peak No. 9, RRT 1.00 (Compound A), purity” value in data set [4] (After heating to 100° C.) came out at 99.07; in data set [4] (After heating to 150° C.), 97.98; in data set [4] (Initial (before heating)) it was 99.07. In addition, in data set [4] (HPLC, heated to 100° C. and 150° C.), the heat-promoted degradation result is listed as “resistant to heat-promoted degradation”. Also, the “Purity (area %)” value in data set [4] (Heated to 100° C.) is listed as 99.1 area %; in data set [4] (Heated to 150° C.), 98.0 area %; in data set [4] (Initial), 99.1 area %. Moreover, the “stability after one week” value is, setting by setting: (25° C. and 60% relative humidity) “stable”; (40° C. and 75% relatively humidity) “stable”. Also, the Crystallinity result in data set [5] (After grinding for 5 mins.) is on record as “Decreased crystallinity”; in data set [5] (Initial), “Crystalline”. Further, in data set [5], the “crystallinity after grinding” value was “maintain its crystallinity”. Also, the “degradation (FIG. 34)” value in data set [6] (sample heated directly to 150 C) came out at 4.47%; in data set [6] (sample heated to a lower temperature (<100° C.) and then to 150° C.), 3.54%. The same molecule displayed an IC50 in data set [7] of 0.2 nM. Moreover, the Form change entry in data set [3] (Heated to 100° C.) and in data set [3] (Heated to 150° C.) was “No” each time. In addition, in data set [3] (XRPD, FIG. 31), the “temperature to which crystallinity is retained” value was “about 150 °C”.

In data set [7] (Homo sapiens, MCF7, 120 h), `C[C@@H]1Cc2c([nH]c3ccccc23)[C@@H](c2c(F)cc(/C=C/C(=O)O)cc2F)N1C12CC(C1)C2` [Free base of Compound A, (E)-3-(4-((1R,3R)-2-(Bicyclo[1.1.1]pentan-1-yl)-3-methyl-2,3,4,9-tetrahydro-1H-pyrido[3,4-b]indol-1-yl)-3,5-difluorophenyl)acrylic acid] registered an IC50 of 0.4 nM.
